Data on 12 compounds can be found in ChEMBL document CHEMBL1135352, “8-Anilinoimidazo[4,5-g]quinoline-7-carbonitriles as Src kinase inhibitors” (Bioorg Med Chem Lett, 2002).

The term IC50 denotes the concentration that inhibits the measured activity by half. Higher therefore signals weaker potency in that assay.

Bounds are passed on as bounds.

The target of experiment [1] is Proto-oncogene tyrosine-protein kinase Src (Rattus norvegicus, UniProt Q9WUD9). Description: Inhibition of src kinase activity in Src transformed rat fibroblasts. It is filed as functional.
Experiment [2] deals with Receptor tyrosine-protein kinase erbB-2 (Homo sapiens, UniProt P04626). Description: Inhibition of ERBB2 receptor kinase.
Experiment [3] deals with Proto-oncogene tyrosine-protein kinase Src (Homo sapiens, UniProt P12931). Put plainly: Inhibition of Src protein tyrosine kinase activity.
Experiment [4] can be described thus: Inhibition of Dual specificity mitogen-activated protein kinase kinase MEK.
For experiment [5], the target named is Epidermal growth factor receptor (Homo sapiens, UniProt P00533). Description: Inhibition of Epidermal growth factor receptor kinase.
Chain of Epidermal growth factor receptor (P00533 whole entry): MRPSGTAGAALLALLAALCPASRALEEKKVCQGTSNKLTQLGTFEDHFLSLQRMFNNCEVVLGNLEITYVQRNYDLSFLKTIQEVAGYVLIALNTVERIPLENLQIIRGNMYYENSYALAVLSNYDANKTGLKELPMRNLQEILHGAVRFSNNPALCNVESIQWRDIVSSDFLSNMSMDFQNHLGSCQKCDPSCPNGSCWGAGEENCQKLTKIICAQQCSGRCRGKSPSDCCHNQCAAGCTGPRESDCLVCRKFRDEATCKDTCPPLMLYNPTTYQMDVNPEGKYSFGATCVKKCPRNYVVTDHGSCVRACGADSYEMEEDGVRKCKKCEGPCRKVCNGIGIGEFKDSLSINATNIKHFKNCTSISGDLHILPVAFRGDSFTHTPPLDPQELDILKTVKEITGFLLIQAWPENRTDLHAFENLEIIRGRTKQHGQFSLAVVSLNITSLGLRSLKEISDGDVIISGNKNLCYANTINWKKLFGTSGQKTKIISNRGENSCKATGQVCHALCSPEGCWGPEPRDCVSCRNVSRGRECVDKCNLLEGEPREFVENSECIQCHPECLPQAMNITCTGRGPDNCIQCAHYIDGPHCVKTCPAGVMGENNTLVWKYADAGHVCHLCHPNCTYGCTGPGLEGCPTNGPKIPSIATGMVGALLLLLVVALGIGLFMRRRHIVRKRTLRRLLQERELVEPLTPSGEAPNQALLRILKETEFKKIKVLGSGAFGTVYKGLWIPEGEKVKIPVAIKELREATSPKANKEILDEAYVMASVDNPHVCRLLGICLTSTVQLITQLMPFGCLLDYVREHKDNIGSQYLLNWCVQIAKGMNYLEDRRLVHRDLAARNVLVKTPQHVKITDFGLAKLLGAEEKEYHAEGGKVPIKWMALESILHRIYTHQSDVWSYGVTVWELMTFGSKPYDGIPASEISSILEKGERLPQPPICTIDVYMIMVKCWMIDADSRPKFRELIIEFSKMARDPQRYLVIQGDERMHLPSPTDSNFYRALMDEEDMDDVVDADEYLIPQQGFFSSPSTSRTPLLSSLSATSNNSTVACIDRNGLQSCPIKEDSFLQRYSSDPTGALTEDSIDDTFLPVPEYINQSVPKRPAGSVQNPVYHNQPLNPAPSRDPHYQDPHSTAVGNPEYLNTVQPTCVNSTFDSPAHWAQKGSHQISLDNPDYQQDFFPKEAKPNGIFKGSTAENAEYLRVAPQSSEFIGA

Chain of Proto-oncogene tyrosine-protein kinase Src (Rattus norvegicus, UniProt Q9WUD9) (Q9WUD9 2-536 limits assumed): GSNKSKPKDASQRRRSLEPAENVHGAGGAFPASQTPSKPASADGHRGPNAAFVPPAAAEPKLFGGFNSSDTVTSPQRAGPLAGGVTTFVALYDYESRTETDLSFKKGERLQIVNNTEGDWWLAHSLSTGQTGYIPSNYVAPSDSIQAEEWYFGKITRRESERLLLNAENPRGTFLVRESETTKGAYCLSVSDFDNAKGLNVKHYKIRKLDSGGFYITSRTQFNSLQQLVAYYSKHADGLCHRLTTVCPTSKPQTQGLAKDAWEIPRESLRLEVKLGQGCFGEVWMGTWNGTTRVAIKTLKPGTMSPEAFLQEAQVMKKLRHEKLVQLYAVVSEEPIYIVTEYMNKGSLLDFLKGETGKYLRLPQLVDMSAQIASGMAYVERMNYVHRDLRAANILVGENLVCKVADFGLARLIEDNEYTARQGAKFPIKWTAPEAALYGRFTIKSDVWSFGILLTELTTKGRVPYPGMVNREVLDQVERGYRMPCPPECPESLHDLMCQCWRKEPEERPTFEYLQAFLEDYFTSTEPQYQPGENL
Chain of Receptor tyrosine-protein kinase erbB-2 (P04626 whole entry): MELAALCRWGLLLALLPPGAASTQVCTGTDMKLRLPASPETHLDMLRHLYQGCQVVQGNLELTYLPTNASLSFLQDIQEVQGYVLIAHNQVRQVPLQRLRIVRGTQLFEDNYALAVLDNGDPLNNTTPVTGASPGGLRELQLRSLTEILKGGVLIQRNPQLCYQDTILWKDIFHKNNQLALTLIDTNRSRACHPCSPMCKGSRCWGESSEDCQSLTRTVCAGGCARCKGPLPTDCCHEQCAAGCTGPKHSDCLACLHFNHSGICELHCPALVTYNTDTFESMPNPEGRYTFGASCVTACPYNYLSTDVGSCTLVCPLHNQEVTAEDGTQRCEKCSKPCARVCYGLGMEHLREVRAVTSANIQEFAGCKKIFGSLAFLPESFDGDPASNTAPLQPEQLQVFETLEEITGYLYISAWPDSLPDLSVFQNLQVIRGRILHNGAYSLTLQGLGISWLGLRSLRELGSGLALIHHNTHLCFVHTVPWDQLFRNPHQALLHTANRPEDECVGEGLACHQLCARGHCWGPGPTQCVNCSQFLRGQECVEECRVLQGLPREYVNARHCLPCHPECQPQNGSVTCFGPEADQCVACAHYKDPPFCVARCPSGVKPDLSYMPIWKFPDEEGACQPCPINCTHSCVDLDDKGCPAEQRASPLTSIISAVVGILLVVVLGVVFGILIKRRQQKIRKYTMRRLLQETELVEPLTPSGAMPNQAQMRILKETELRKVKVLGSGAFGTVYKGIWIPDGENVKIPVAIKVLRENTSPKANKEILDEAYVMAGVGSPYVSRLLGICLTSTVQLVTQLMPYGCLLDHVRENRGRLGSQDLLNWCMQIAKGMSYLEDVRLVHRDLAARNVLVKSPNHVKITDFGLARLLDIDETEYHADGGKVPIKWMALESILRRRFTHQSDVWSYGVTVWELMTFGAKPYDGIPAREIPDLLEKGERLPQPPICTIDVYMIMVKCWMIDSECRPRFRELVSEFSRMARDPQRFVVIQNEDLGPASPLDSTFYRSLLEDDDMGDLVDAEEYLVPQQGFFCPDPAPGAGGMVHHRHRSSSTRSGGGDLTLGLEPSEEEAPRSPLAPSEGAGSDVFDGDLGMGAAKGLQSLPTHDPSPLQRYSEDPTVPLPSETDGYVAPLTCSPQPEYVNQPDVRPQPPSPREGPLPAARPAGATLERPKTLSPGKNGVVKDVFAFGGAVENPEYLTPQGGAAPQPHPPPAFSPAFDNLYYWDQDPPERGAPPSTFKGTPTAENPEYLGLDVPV
Chain of Proto-oncogene tyrosine-protein kinase Src (Homo sapiens, UniProt P12931) (P12931 2-536 limits assumed): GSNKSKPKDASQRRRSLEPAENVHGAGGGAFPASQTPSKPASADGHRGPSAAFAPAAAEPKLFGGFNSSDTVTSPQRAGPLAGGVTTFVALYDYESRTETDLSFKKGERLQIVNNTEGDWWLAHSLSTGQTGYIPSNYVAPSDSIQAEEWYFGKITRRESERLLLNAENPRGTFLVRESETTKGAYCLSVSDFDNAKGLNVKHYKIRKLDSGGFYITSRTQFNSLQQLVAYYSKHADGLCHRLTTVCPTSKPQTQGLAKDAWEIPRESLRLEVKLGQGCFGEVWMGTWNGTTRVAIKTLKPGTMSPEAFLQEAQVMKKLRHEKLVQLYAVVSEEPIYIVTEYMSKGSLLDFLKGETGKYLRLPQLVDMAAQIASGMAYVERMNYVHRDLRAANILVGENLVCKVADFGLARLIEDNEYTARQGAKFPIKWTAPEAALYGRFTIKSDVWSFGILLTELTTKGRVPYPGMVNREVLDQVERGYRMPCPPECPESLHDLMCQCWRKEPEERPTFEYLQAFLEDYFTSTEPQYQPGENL

On to `COc1cc(Nc2c(C#N)cnc3cc4[nH]cnc4cc23)c(Br)cc1Cl`, for which the IC50 in experiment [1] was 2800 nM; in experiment [2], more than 1000 nM; in experiment [3] it was 16 nM; in experiment [4], more than 1000 nM; in experiment [5], more than 1000 nM.
As to `COc1cc(Nc2c(C#N)cnc3cc4[nH]cnc4cc23)cc(OC)c1OC`, the IC50 was more than 10000 nM in experiment [1]; more than 1000 nM in experiment [2]; 330 nM in experiment [3]; more than 1000 nM in experiment [4]; more than 1000 nM in experiment [5].
As for `COc1cc(Nc2c(C#N)cnc3cc4c(cc23)ncn4CCN2CCOCC2)c(C)cc1Cl`, the IC50 was 3900 nM in experiment [1]; more than 1000 nM in experiment [2]; 29 nM in experiment [3]; more than 1000 nM in experiment [4]; more than 1000 nM in experiment [5].
`COc1cc(Nc2c(C#N)cnc3cc4c(cc23)ncn4CCN2CCOCC2)c(Br)cc1Cl`: the IC50 is 670 nM in experiment [1]; more than 1000 nM in experiment [2]; 9 nM in experiment [3]; more than 1000 nM in experiment [4]; more than 1000 nM in experiment [5].
For the compound `COc1ccc(Cl)c(Nc2c(C#N)cnc3cc4c(cc23)ncn4CCN2CCOCC2)c1`, the IC50 in experiment [1] is 1200 nM; in experiment [2], more than 1000 nM; in experiment [3], 43 nM; in experiment [4], more than 1000 nM; in experiment [5], more than 1000 nM.
As for `COc1cc(Nc2c(C#N)cnc3cc4nc(NCCN5CCOCC5)[nH]c4cc23)cc(OC)c1OC`, the IC50 in experiment [1] was more than 10000 nM; in experiment [2] it was more than 1000 nM; in experiment [3], 180 nM.
`COc1cc(Nc2c(C#N)cnc3cc4c(cc23)ncn4CCN2CCOCC2)cc(OC)c1OC`: the IC50 in experiment [1] was more than 10000 nM; in experiment [2] it was more than 1000 nM; in experiment [3], 200 nM; in experiment [4], more than 1000 nM; in experiment [5], more than 1000 nM.
Take `COc1cc(Nc2c(C#N)cnc3cc4[nH]c(CN5CCOCC5)nc4cc23)cc(OC)c1OC`: the IC50 in experiment [1] was more than 10000 nM; in experiment [2], more than 1000 nM; in experiment [3], 620 nM; in experiment [4] it was more than 1000 nM; in experiment [5] it was more than 1000 nM.
Consider `COc1ccc(C)c(Nc2c(C#N)cnc3cc4[nH]c(NCCN5CCOCC5)nc4cc23)c1`, for which the IC50 in experiment [1] was more than 10000 nM; in experiment [2], more than 1000 nM; in experiment [3] it was 67 nM; in experiment [4], more than 1000 nM; in experiment [5], more than 1000 nM.
For the compound `COc1ccc(Cl)c(Nc2c(C#N)cnc3cc4[nH]cnc4cc23)c1`, the IC50 in experiment [1] is 10500 nM; in experiment [2], more than 1000 nM; in experiment [3] it was 30 nM; in experiment [4], more than 1000 nM; in experiment [5], more than 1000 nM.
`COc1ccc(C)c(Nc2c(C#N)cnc3cc4c(cc23)ncn4CCN2CCOCC2)c1`: the IC50 in experiment [1] is 3300 nM; in experiment [2], more than 1000 nM; in experiment [3] it was 120 nM; in experiment [4] it was more than 1000 nM; in experiment [5], more than 1000 nM.
Take `N#Cc1cnc2cc3[nH]cnc3cc2c1Nc1ccc(Cl)cc1Br`: the IC50 in experiment [1] is 10100 nM; in experiment [2], more than 1000 nM; in experiment [3], 75 nM; in experiment [4], more than 1000 nM; in experiment [5], more than 1000 nM.
